The values below come from patent US20250034107A1, “SUBSTITUTED 2-(2-(2,6-DIOXOPIPERIDIN-3-YL)-1- OXOISOINDOLIN-5-YL) ACETAMIDE ANALOGS AS MODULATORS OF GSPT1 AND/OR IKZF1 PROTEIN” (St. Jude Children's Research Hospital, Inc., priority 2021, published 2025).

For one assay, the target named is T1, hGSPT1 (Homo sapiens, UniProt P15170+Q96SW2).
T1 construct: host or cells: HEK293
The experiment in a line: hGSPT1 HiBiT assay (level of GSPT1 HiBiT tag protein, Nano-Glo HiBiT Lytic Detection). The class given is cell-based. The conditions noted are these: HEK293 hGSPT1 HiBiT tag cells, 4 hrs incubation. As for the experimental part: HEK293 hGSPT1 HiBiT tag cells were seeded in white 384-well assay plates at density of 800 cells per well in triplicates. After overnight incubation, cells were treated with compounds in dose-response format using a Pintool on a Biomek FXP Laboratory Automation Workstation (Beckman Coulter). After 4 hrs incubation, the level of GSPT1 HiBiT tag protein was evaluated using Nano-Glo® HiBiT Lytic Detection System (Promega) according to the manufacturer's instruction. Luminescence signal was measured using an Envision plate reader (Perkin-Elmer).
Background: HiBiT is a short tag that completes a luciferase, so light tracks the accessible tagged protein.

In another assay the test system is MHHCALL4 cells. The experiment in a line: Cell proliferation assay (Cell Titer-Glo), MHH-CALL-4 cells. It is filed as cell-based, human. The conditions noted are these: 72 h incubation; for EC50: Homo sapiens. As to the method: (§1) MV-4-11 cell line was purchased from the American Type Culture Collection (ATCC, Manassas, VA) and maintained in Iscove's Modified Dulbecco's medium (IMDM; (ATCC) supplemented with 10% FBS. MHHCALL4 cell line was purchased from the German Collection of Microorganisms and Cell Cultures GmbH (DSMZ) and maintained in RPMI 1640 medium supplemented with 10% fetal bovine serum (HyClone), penicillin/streptomycin (100 U/mL), and glutamine ([…]) at 37° C. in a humidified 5% C02 incubator. Exponentially growing MV-4-11 cells were plated at 1250 cells per well and MHH-CALL-4 cells were plated at 7,500 cells per well in Corning 8804BC white 384-well assay plates and incubated overnight at 37° C. in a humidified 5% CO2 incubator. Compounds were transferred to the assay plate from a dose-response plate using a Pintool on a Biomek FXP Laboratory Automation Workstation (Beckman Coulter). Cytotoxicity was determined following 72 hours of incubation using Promega Cell Titer Glo reagent according to the manufacturer's recommendation. Luminescence was measured on an Envision plate reader (Perkin-Elmer).
(§2) Compounds were screened in human cancer cell lines and each cell line was cultured in the complete medium recommended by the vendor and seeded in Corning 8804BC white 384-well assay plates at density of 1250 cells per well for MV-4-11 cells and of 7,500 cells per well for MHH-CALL-4 cells. After overnight incubation at 37° C. in a humidified 5% CO2 incubator, cells were treated with compounds in dose-response format using a Pintool on a Biomek FXP Laboratory Automation Workstation (Beckman Coulter). After 72 h incubation, cell proliferation was assessed using Cell Titer-Gbo (CTG) luminescent cell viability assay (Promega) according to the manufacturer's instruction. Luminescence signal was measured using an Envision plate reader (Perkin-Elmer).
For orientation: ATP-based viability assays read luminescence as a measure of living cells.

In the next assay the test system is MV-4-11 cells. The assay can be described thus: Cell proliferation assay (Cell Titer-Glo), MV-4-11 cells. The note with it: Homo sapiens, MV4-11; MV411 cells, 72 h incubation. It is filed as cell-based. As for the experimental part: as §1, §2
Another assay concerns neosubstrate degradation. The note with it: more potent in cells than lenalidomide; see Ref. 13; cited from earlier work.

SMILES strings stand for the structures.

T1 sequence (P15170 whole entry): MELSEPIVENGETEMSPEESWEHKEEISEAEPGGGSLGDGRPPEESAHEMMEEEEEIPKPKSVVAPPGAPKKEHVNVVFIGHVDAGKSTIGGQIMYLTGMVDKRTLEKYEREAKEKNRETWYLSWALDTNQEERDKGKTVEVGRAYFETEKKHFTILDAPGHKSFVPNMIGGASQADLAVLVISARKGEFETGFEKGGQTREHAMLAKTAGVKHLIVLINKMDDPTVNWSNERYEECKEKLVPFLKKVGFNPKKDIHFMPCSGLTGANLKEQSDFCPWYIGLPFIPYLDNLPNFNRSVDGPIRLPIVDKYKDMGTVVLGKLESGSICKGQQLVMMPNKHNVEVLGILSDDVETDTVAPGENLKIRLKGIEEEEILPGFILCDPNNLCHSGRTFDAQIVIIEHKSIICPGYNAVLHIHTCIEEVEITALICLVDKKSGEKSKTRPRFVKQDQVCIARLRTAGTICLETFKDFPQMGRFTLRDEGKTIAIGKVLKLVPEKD
T1 sequence (Q96SW2 whole entry): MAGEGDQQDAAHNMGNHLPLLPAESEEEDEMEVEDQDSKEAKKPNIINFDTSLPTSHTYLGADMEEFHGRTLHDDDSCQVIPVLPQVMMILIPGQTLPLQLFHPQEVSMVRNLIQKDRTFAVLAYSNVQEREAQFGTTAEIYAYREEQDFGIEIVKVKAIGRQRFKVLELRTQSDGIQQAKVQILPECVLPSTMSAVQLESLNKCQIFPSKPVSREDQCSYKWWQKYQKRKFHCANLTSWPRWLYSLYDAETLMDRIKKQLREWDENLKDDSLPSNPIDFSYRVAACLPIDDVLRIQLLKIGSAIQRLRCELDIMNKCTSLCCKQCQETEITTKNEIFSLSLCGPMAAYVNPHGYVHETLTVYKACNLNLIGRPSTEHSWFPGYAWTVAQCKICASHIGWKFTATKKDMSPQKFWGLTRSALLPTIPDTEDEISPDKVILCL
T1 sequence (Q16531 whole entry partner): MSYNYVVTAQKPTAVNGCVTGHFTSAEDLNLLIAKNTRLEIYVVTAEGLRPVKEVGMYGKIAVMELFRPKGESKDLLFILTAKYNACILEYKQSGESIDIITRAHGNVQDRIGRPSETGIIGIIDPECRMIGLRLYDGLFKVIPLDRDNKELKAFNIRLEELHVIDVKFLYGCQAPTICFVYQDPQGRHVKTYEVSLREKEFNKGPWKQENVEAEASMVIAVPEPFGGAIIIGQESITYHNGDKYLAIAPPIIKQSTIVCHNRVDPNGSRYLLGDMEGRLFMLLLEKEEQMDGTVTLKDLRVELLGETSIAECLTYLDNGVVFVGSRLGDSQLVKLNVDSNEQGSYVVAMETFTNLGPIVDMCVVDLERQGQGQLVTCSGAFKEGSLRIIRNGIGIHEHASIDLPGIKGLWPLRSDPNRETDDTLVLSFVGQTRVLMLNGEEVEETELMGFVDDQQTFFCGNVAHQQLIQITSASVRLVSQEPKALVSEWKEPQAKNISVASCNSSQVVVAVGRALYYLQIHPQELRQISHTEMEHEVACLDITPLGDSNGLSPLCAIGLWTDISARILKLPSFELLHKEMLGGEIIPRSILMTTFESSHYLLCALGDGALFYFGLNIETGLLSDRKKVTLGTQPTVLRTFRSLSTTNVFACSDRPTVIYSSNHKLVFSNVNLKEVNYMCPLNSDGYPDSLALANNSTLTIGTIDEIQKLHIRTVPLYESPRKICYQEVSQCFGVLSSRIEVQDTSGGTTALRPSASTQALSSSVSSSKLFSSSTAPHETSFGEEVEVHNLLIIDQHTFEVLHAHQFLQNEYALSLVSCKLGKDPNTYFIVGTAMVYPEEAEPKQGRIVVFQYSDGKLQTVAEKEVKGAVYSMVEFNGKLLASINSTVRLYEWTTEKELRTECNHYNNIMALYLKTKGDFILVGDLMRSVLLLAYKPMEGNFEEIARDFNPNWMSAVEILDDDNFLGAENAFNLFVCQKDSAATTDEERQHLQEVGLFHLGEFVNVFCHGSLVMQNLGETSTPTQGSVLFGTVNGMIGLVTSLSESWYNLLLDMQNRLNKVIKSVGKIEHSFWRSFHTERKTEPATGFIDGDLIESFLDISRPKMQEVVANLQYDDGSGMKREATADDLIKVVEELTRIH

In the case of `O=C1CCC(N2Cc3cc(CC(=O)Nc4cccc(OCc5ccccc5)c4)ccc3C2=O)C(=O)N1` (stereo not drawn) [Compound 22], the DC50 on hGSPT1 is less than 1 nM. Also, the EC50 in the assay on MHHCALL4 cells and with MV-4-11 cells was less than 1 nM each time.
For the molecule `O=C1CC[C@H](N2Cc3c(OCc4ccc(CN5CCOCC5)cc4)cccc3C2=O)C(=O)N1` [CC-220], the “potency in cells relative to lenalidomide” value with neosubstrate degradation is listed as 10 fold.
For `CC(C)NC(=O)Cc1ccc2c(c1)CN(C1CCC(=O)NC1=O)C2=O` (stereo not drawn) [Compound 6], the EC50 in the assay with MHHCALL4 cells is more than 8500 nM; in the assay with MV-4-11 cells it was more than 6900 nM.
On hGSPT1, `O=C(Cc1ccc2c(c1)CN(C1CCC(=O)NC1=O)C2=O)NCc1cccc2ccccc12` (stereo not drawn) [Compound 12] registered a DC50 of less than 1 nM. Besides, the 50% effective concentration (EC50) in the assay with MHHCALL4 cells was less than 1 nM; in the assay with MV-4-11 cells, 5 nM.
Molecule `O=C(Cc1ccc2c(c1)CN(C1CCC(=O)NC1=O)C2=O)NCc1cccc(C(F)(F)F)c1` (stereo not drawn) [Compound 10] came in with a DC50 on hGSPT1 of less than 1 nM. Also, the half-maximal effective concentration (EC50) in the assay on MHHCALL4 cells and in the assay on MV-4-11 cells was less than 1 nM in each case.
`Cc1ccc(CNC(=O)Cc2ccc3c(c2)CN(C2CCC(=O)NC2=O)C3=O)cc1` (stereo not drawn) [Compound 8]: at hGSPT1, the DC50 was less than 1 nM. In addition, the concentration for a half-maximal effect (EC50) with MHHCALL4 cells and in the assay on MV-4-11 cells was less than 1 nM in each case.
On to `CCN(C(=O)Cc1ccc2c(c1)CN(C1CCC(=O)NC1=O)C2=O)c1ccccc1` (stereo not drawn) [Compound 3], for which the EC50 in the assay with MHHCALL4 cells is more than 10700 nM; with MV-4-11 cells it was more than 8700 nM.
On to `O=C(Cc1ccc2c(c1)CN(C1CCC(=O)NC1=O)C2=O)NCc1ccccc1` (stereo not drawn) [Compound 1], for which the DC50 on hGSPT1 is less than 1 nM. The EC50 in the assay on MHHCALL4 cells and with MV-4-11 cells was less than 1 nM in each case.
On hGSPT1, `COc1ccc(NC(=O)Cc2ccc3c(c2)CN(C2CCC(=O)NC2=O)C3=O)cc1` (stereo not drawn) [Compound 13] returned a DC50 of less than 1 nM. In addition, the EC50 in the assay with MHHCALL4 cells and in the assay on MV-4-11 cells was less than 1 nM in each case.
`Cc1ccccc1NC(=O)Cc1ccc2c(c1)CN(C1CCC(=O)NC1=O)C2=O` (stereo not drawn) [Compound 18]: the DC50 at hGSPT1 was more than 5970 nM. In addition, the 50% effective concentration (EC50) in the assay with MHHCALL4 cells is 2 nM; in the assay on MV-4-11 cells it was more than 4900 nM.
The matching figures for `O=C1CCC(N2Cc3cc(CC(=O)Nc4cccc(F)c4)ccc3C2=O)C(=O)N1` (stereo not drawn) [Compound 21]: more than 3110 nM, less than 1 nM and more than 4500 nM.
As to `COCCNC(=O)Cc1ccc2c(c1)CN(C1CCC(=O)NC1=O)C2=O` (stereo not drawn) [Compound 4], the values for the 50% effective concentration (EC50) with MHHCALL4 cells and in the assay on MV-4-11 cells were more than 8200 nM and more than 6700 nM, respectively.
On the same counts, the results for `O=C(Cc1ccc2c(c1)CN(C1CCC(=O)NC1=O)C2=O)NCC1CC1` (stereo not drawn) [Compound 7] are more than 10100 nM and more than 8200 nM.
The matching figures for `O=C1CCC(N2Cc3cc(CC(=O)N4CCCCC4)ccc3C2=O)C(=O)N1` (stereo not drawn) [Compound 15]: more than 10700 nM and more than 8700 nM.
As for `O=C(Cc1ccc2c(c1)CN(C1CCC(=O)NC1=O)C2=O)NCCc1ccccc1` (stereo not drawn) [Compound 11], at hGSPT1, the DC50 was less than 1 nM. For the same molecule, in the assay with MHHCALL4 cells, the concentration giving a half-maximal response (EC50) was less than 1 nM.
As for `O=C1CCC(N2Cc3cc(CC(=O)N4CCOCC4)ccc3C2=O)C(=O)N1` (stereo not drawn) [Compound 14], the DC50 on hGSPT1 is more than 2700 nM. The figures for the half-maximal effective concentration (EC50) with MHHCALL4 cells and with MV-4-11 cells were 21 nM and more than 2200 nM, respectively.
On hGSPT1, `O=C1CCC(N2Cc3cc(CC(=O)Nc4ccc(N5CCCCC5)cc4)ccc3C2=O)C(=O)N1` (stereo not drawn) [Compound 23] came in with a DC50 of less than 1 nM. Further, the EC50 in the assay with MHHCALL4 cells is less than 1 nM; in the assay with MV-4-11 cells, 2 nM.
Molecule `O=C1CCC(N2Cc3cc(CC(=O)NC4CCCCC4)ccc3C2=O)C(=O)N1` (stereo not drawn) [Compound 2] gave a DC50 on hGSPT1 of more than 7100 nM. Further, the “MHHCALL4 Cell Proliferation Assay, result in words” value in the assay on MHHCALL4 cells (printed in place of an EC50) is recorded as “cytostatic at 10 nM”. In the assay on MV-4-11 cells, this molecule yielded an EC50 of more than 5800 nM.
Consider `COc1cccc(NC(=O)Cc2ccc3c(c2)CN(C2CCC(=O)NC2=O)C3=O)c1` (stereo not drawn) [Compound 19], for which the 50% effective concentration (EC50) with MHHCALL4 cells is less than 1 nM; in the assay with MV-4-11 cells, 5 nM.
In the case of `O=C(Cc1ccc2c(c1)CN(C1CCC(=O)NC1=O)C2=O)NCc1ccc(Cl)cc1` (stereo not drawn) [Compound 16], at hGSPT1, the DC50 was less than 1 nM. In addition, the concentration for a half-maximal effect (EC50) with MHHCALL4 cells is less than 1 nM.
`O=C1CCC(N2Cc3cc(CC(=O)Nc4cccc(Cl)c4)ccc3C2=O)C(=O)N1` (stereo not drawn) [Compound 20]: on hGSPT1, the DC50 is less than 1 nM. The EC50 was less than 1 nM in the assay with MHHCALL4 cells and 5 nM in the assay with MV-4-11 cells.
Take `O=C1CCC(N2Cc3cc(CC(=O)Nc4ccccc4)ccc3C2=O)C(=O)N1` (stereo not drawn) [Compound 17]: the DC50 at hGSPT1 was more than 8100 nM. Besides, the figures for the concentration giving a half-maximal response (EC50) in the assay on MHHCALL4 cells and in the assay on MV-4-11 cells were 4 nM and 744 nM, respectively.
The matching figures for `O=C(Cc1ccc2c(c1)CN(C1CCC(=O)NC1=O)C2=O)NCc1ccc(F)cc1` (stereo not drawn) [Compound 9]: less than 1 nM, less than 1 nM and 3 nM.
`CCN(CC)C(=O)Cc1ccc2c(c1)CN(C1CCC(=O)NC1=O)C2=O` (stereo not drawn) [Compound 5] yielded an EC50 with MV-4-11 cells of more than 1730 nM.

In general, EC50 refers to the concentration that produces a half-maximal response. Read a high EC50 as lower potency in that assay.
